One data set relates to HL-60 cells. Nature of the data set: CD11b expression assay by flow cytometry in HL-60 cells. Format: cell-based, human. Particulars: for EC50: Homo sapiens, HL-60, 96 h, 4-day (96 h) treatment, CD11b upregulation, read-out: EC50 [nM], %CD11b response in HL60 cells; for EC50 / Activity in the CD11b assay: HL-60 cells; for Activity in the CD11b assay: concentration-response; for LipE (lipophilic efficiency): LipE = -LogEC50-cLogP, EC50 of CD11b assay in HL-60. The procedure: Cells were treated with 1000 structurally diverse small molecules selected from a commercial library. A single point testing concentration of 10 µM was used. After 4 days, cells were stained with a CD11b antibody and analysed using flow cytometry. Compounds upregulating CD11b expression greater than 10% in at least three of the cell lines were considered as potential hits. Hit confirmation was undertaken as follows: first, the hit was re-tested at 10 µM both with the CD11b antibody and an isotype control to account for nonspecific binding. Secondly, the effect of the hit on cell proliferation and viability was evaluated through staining with DAPI to evaluate the number of dead cells, and with acridine orange to detect total cell numbers. Thirdly, the induction of differentiation caused by the compounds was confirmed through morphology assessment with Giemsa staining. Finally, the molecule was resynthesised and fully characterised to confirm structural authenticity. This fresh sample was then retested in the CD11b assay to generate a concentration-response curve. The study of proliferation and morphology was performed on a panel of six cell lines: HL-60, THP-1, OCI-AML3, KG-1, Kasumi-1 and ME-1.
Thus, structure-activity relationship studies were initiated, where the potency of the new analogues was evaluated through concentration-response testing using the CD11b assay in HL-60 cells. Lipophilic efficiency (LipE), which also accounts for lipophilicity, was also used to compare the quality of the analogues. Even though multiple parameters can influence activity in a cell-based assay, LipE is a useful guide to compare analogues.
PE mouse-anti-human-CD11b/Mac-1 (ICRF44, Cat 555388) and PE-mouse-IgG1-κ-isotype control (MOPC-21, Cat 555749) were purchased from BD Bioscience. Cells were suspended in 100 μL growth media (RPMI + 10% FBS + 1% L-glutamine) at a density of 2 × 10^4 cells/well of a V-bottom 96 well plate (Corning, Cat 3894) and grown for 96 h in the presence of compound at the required concentration. After 96 h, the plate was centrifuged, media was removed, and cells were resuspended in 50 µL of blocking buffer (IMDM, no phenol red + 10% FBS) containing 2.5 μL of either CD11b or isotype control antibody and incubated on ice in the dark for 20 min. Cells were washed twice in 200 μL of staining buffer (IMDM, no phenol red + 1% FBS) before being resuspended in 200 μL of staining buffer containing 1 μg/mL of DAPI to help identify dead cells. Flow cytometry data were collected on an Attune NxT and analysed using the Attune NxT software (Life Technologies).

Data set [1] can be described thus: Metabolic stability in mouse S9 fraction. The class given is in vitro ADME. Particulars: ER = Clint/species flow rate (mice: 90 mL/min/kg). The protocol: (§1) Determination of semi-thermodynamic solubility, metabolic stability in S9 fraction, Caco-2 permeability and PPB were performed by Cyprotex Ltd. (www.cyprotex.com, accessed on 22 October 2021) using their standard assays and as described on their website.
[22] Extraction ratio (ER) is calculated as the measured intrinsic clearance over the hepatic blood flow of each species (90 mL/min/kg for mice). It has the advantage over other parameters (half-life, clearance) that it is independent of the species used

The nature of data set [2]: Semi-thermodynamic aqueous solubility. Format: physicochemical. Particulars: thermodynamic from solid. The protocol:
as §1

Data set [3] can be described thus: Single dose PK study in male CD-1 mice. Format: in vivo, mouse. The source says: In order to undertake a preliminary assessment of the pharmacokinetic (PK) profile of this compound class, three compounds were deemed to have sufficient intrinsic potency, solubility and in vitro metabolic stability properties to progress into a single dose in vivo PK study. […] […] […] Nonetheless, the clearance of the three compounds was high to moderate, and at this dose the in vitro EC50 was not reached.
Male CD-1 mice were used for the PK studies, with three for each treatment. […] Blood concentration was measured by LC-MS/MS over 24 h.

Where [4] appears, read: aqueous (buffer or water not specified).
[5] abbreviates: mouse, whole blood, single dose 3 mg/kg po, blood.

Molecules are shown by their SMILES. Values after ≈ are worked out from the molar mass of the structure shown. Where only a bound is given, the exact number is not on record here.

As for `CC(C)N1C(=O)COCc2ccc(-c3ccc(NS(C)(=O)=O)cc3)cc21` [Compound 26, N-(4-(1-Isopropyl-2-oxo-1,2,3,5-tetrahydrobenzo[e][1,4]oxazepin-8-yl)phenyl)methanesulfonamide], the half-maximal effective concentration (EC50) with HL-60 cells was above 30000 nM.

For the compound `CC(C)N1C(=O)COCc2ccc(-c3cncc(NS(C)(=O)=O)c3)cc21` [Compound 39, N-(5-(1-Isopropyl-2-oxo-1,2,3,5-tetrahydrobenzo[e][1,4]oxazepin-8-yl)pyridin-3-yl)methanesulfonamide], in the data set with HL-60 cells, the “Activity in the CD11b assay” value is on record as “abolished activity” and the EC50 was above 30000 nM.

As to `CS(=O)(=O)Nc1cccc(-c2ccc3c(c2)N(C2CCCC2)C(=O)COC3)c1` [Compound 12, N-(3-(1-Cyclopentyl-2-oxo-1,2,3,5-tetrahydrobenzo[e][1,4]oxazepin-8-yl)phenyl)methanesulfonamide], in the data set with HL-60 cells, the half-maximal effective concentration (EC50) came out at 650 nM and the “LipE (lipophilic efficiency)” value amounted to 4.0. Moreover, in data set [1], the “ER in mS9 (extraction ratio)” value was found to be 0.83. This compound registered a solubility (thermodynamic) in data set [2] (setting [4]) of 124 µM (≈ 49.7 µg/mL).

`CS(=O)(=O)Nc1cccc(-c2ccc3c(c2)N(CC2CC2)C(=O)OC3)c1` [Compound 41, N-(3-(1-(Cyclopropylmethyl)-2-oxo-1,4-dihydro-2H-benzo[d][1,3]oxazin-7-yl)phenyl)methanesulfonamide]: in the data set with HL-60 cells (CD11b EC50 in HL-60, vs OXS003976), the “Loss in activity compared to OXS003976” value was determined as 15 fold. Further, in the data set with HL-60 cells, the EC50 is 15000 nM and the “LipE (lipophilic efficiency)” value is listed as 2.5. The “ER in mS9 (extraction ratio)” value in data set [1] was 0.54. This compound displayed a solubility (thermodynamic) in data set [2] (aqueous medium (buffer not specified)) of 77 µM (≈ 28.7 µg/mL).

For `CC(C)CN1C(=O)COCc2ccc(-c3cccc(NS(C)(=O)=O)c3)cc21` [Compound 10, N-(3-(1-Isobutyl-2-oxo-1,2,3,5-tetrahydrobenzo[e][1,4]oxazepin-8-yl)phenyl)methanesulfonamide], in the data set with HL-60 cells, the EC50 was 740 nM and the “LipE (lipophilic efficiency)” value came out at 4.0. Further, the “ER in mS9 (extraction ratio)” value in data set [1] came to 0.51. This compound came in with a thermodynamic solubility in data set [2] (setting [4]) above 200 µM.

On to `CC(C)N1C(=O)COCc2ccc(-c3cccc(N)c3)cc21` [Compound 29, 8-(3-Aminophenyl)-1-isopropyl-1,5-dihydrobenzo[e][1,4]oxazepin-2(3H)-one], for which, in the data set on HL-60 cells, the EC50 was 3300 nM and the “LipE (lipophilic efficiency)” value stood at 3.5.

For `COC(=O)Nc1cccc(-c2ccc3c(c2)N(C(C)C)C(=O)COC3)c1` [Compound 28, Methyl (3-(1-isopropyl-2-oxo-1,2,3,5-tetrahydrobenzo[e][1,4]oxazepin-8-yl)phenyl)carbamate], in the data set on HL-60 cells, the “Activity in the CD11b assay” value is recorded as “equally active”, the concentration giving a half-maximal response (EC50) is 500 nM and the “LipE (lipophilic efficiency)” value was determined as 3.7. Moreover, the “ER in mS9 (extraction ratio)” value in data set [1] amounted to 0.31. In addition, in data set [2] (aqueous (not further specified)), the thermodynamic solubility amounted to 88 µM (≈ 31.2 µg/mL).

Turning to `CCN1C(=O)COCc2ccc(-c3cccc(NS(C)(=O)=O)c3)cc21` [Compound 8, N-(3-(1-Ethyl-2-oxo-1,2,3,5-tetrahydrobenzo[e][1,4]oxazepin-8-yl)phenyl)methanesulfonamide], in the data set with HL-60 cells, the EC50 was found to be 6200 nM and the “LipE (lipophilic efficiency)” value is on record as 3.8. In addition, the “ER in mS9 (extraction ratio)” value in data set [1] is on record as 0.25. The compound further came in with a thermodynamic solubility in data set [2] (setting [4]) above 200 µM.

Regarding `CS(=O)(=O)Nc1cccc(-c2ccc3c(c2)N(C2COC2)C(=O)COC3)c1` [Compound 13, N-(3-(1-(Oxetan-3-yl)-2-oxo-1,2,3,5-tetrahydrobenzo[e][1,4]oxazepin-8-yl)phenyl)methanesulfonamide], the concentration giving a half-maximal response (EC50) with HL-60 cells is above 10000 nM. In addition, the “ER in mS9 (extraction ratio)” value in data set [1] was found to be 0.08. Moreover, the solubility (thermodynamic) in data set [2] (setting [4]) turned out to be 10 µM (≈ 3.88 µg/mL).

In the case of `CS(=O)(=O)Nc1cccc(-c2ccc3c(c2)N(c2ccccc2)C(=O)COC3)c1` [Compound 14, N-(3-(2-Oxo-1-phenyl-1,2,3,5-tetrahydrobenzo[e][1,4]oxazepin-8-yl)phenyl)methanesulfonamide], in the data set on HL-60 cells, the EC50 worked out at 220 nM and the “LipE (lipophilic efficiency)” value was 3.9. In addition, the solubility (thermodynamic) in data set [2] (setting [4]) is 14 µM (≈ 5.72 µg/mL). The same compound yielded a bioavailability in data set [3] (mouse, whole blood, 3 mg/kg po vs 0.33 mg/kg iv) of 15%. Further, the half-life in data set [3] (mouse, whole blood, single dose 3 mg/kg po and 0.33 mg/kg iv, blood, route of parameter not given) was 4.1 h. In data set [3] (setting [5]), the Cmax was found to be 44 ng/mL and the time to peak (Tmax) was 1.2 h. Further, the Vd/F in data set [3] (mouse, whole blood, single dose 3 mg/kg po, blood, read-out: Vz/F) amounted to 100 L/kg. Further, the Clobs in data set [3] (single dose 0.33 mg/kg iv, blood) is 43 mL/min/kg. This compound also came in with a Clobs/F in data set [3] (single dose 3 mg/kg po, blood) of 286 mL/min/kg. Also, the “Clearance” value in data set [3] (single dose iv 0.33 mg/kg and po 3 mg/kg) is given as “lowest clearance”.

As for `COc1cccc(-c2ccc3c(c2)N(C(C)C)C(=O)COC3)c1` [Compound 31, 1-Isopropyl-8-(3-methoxyphenyl)-1,5-dihydrobenzo[e][1,4]oxazepin-2(3H)-one], the 50% effective concentration (EC50) in the data set with HL-60 cells was above 10000 nM.

Turning to `CC(C)N1C(=O)COCc2ccc(-c3cccc(NS(=O)(=O)C(F)(F)F)c3)cc21` [Compound 34, 1,1,1-Trifluoro-N-(3-(1-isopropyl-2-oxo-1,2,3,5-tetrahydrobenzo[e][1,4]oxazepin-8-yl)phenyl)methanesulfonamide], in the data set with HL-60 cells, the 50% effective concentration (EC50) is above 10000 nM.

In the case of `CCCS(=O)(=O)Nc1cccc(-c2ccc3c(c2)N(C(C)C)C(=O)COC3)c1` [Compound 33, N-(3-(1-Isopropyl-2-oxo-1,2,3,5-tetrahydrobenzo[e][1,4]oxazepin-8-yl)phenyl)propane-1-sulfonamide], the “Decrease in potency compared to OXS007002” value in the data set with HL-60 cells (CD11b EC50 in HL-60, vs OXS007002) was 10 fold. Besides, in the data set with HL-60 cells, the half-maximal effective concentration (EC50) was determined as 6800 nM and the “LipE (lipophilic efficiency)” value amounted to 2.5.

On to `CC(C)N1C(=O)COCc2ccc(Oc3cccc(NS(C)(=O)=O)c3)cc21` [Compound 40, N-(3-((1-Isopropyl-2-oxo-1,2,3,5-tetrahydrobenzo[e][1,4]oxazepin-8-yl)oxy)phenyl)methanesulfonamide], for which, in the data set with HL-60 cells, the “Activity in the CD11b assay” value is “abolished activity” and the EC50 is above 30000 nM.

With `CC(C)N1C(=O)COCc2ccc(-c3cccc(C(=O)O)c3)cc21` [Compound 32, 3-(1-Isopropyl-2-oxo-1,2,3,5-tetrahydrobenzo[e][1,4]oxazepin-8-yl)benzoic acid], in the data set with HL-60 cells, the EC50 was above 30000 nM.

On to `CS(=O)(=O)Nc1cccc(-c2ccc3c(c2)NC(=O)COC3)c1` [Compound 6, N-(3-(2-Oxo-1,2,3,5-tetrahydrobenzo[e][1,4]oxazepin-8-yl)phenyl)methanesulfonamide], for which, in the data set with HL-60 cells, the “Activity in the CD11b assay” value was “completely inactive” and the 50% effective concentration (EC50) is above 10000 nM. This compound also displayed a solubility (thermodynamic) in data set [2] (setting [4]) above 200 µM.

With `COc1cc(NS(C)(=O)=O)cc(-c2ccc3c(c2)N(C(C)C)C(=O)COC3)c1` [Compound 38, N-(3-(1-Isopropyl-2-oxo-1,2,3,5-tetrahydrobenzo[e][1,4]oxazepin-8-yl)-5-methoxyphenyl)methanesulfonamide], the EC50 in the data set with HL-60 cells is above 30000 nM.

For the compound `CC(C)N1C(=O)COCc2ccc(-c3cccc(S(C)(=N)=O)c3)cc21` (stereo not drawn) [Compound 27, 1-Isopropyl-8-(3-(S-methylsulfonimidoyl)phenyl)-1,5-dihydrobenzo[e][1,4]oxazepin-2(3H)-one], in the data set with HL-60 cells, the “Activity in the CD11b assay” value is recorded as “removed the activity” and the EC50 was above 30000 nM.

`CC(C)N1C(=O)COCc2ccc(-c3cccc(N(C)C)c3)cc21` [Compound 30, 8-(3-(Dimethylamino)phenyl)-1-isopropyl-1,5-dihydrobenzo[e][1,4]oxazepin-2(3H)-one]: in the data set with HL-60 cells, the EC50 amounted to 12000 nM and the “LipE (lipophilic efficiency)” value amounted to 2.4.

For orientation: EC50 means the concentration at which the effect is half-maximal. By solubility (thermodynamic) is commonly meant the concentration in solution at equilibrium with solid. In general, bioavailability refers to dose-corrected exposure relative to a reference, in per cent. High values mean much systemic uptake, low ones little systemic uptake. The half-life is the time needed for the level to fall by half in the phase considered. As a reminder, the Cmax is the highest concentration seen after dosing. The Tmax is the time at which the peak concentration occurs.

These data come from PMC8588310, “Identification and Preliminary Structure-Activity Relationship Studies of 1,5-Dihydrobenzo[e][1,4]oxazepin-2(3H)-ones That Induce Differentiation of Acute Myeloid Leukemia Cells In Vitro” (Molecules, 2021).
